The record followed here is article PMC10861299, “A Systematic Survey of Reversibly Covalent Dipeptidyl Inhibitors of the SARS-CoV-2 Main Protease” (Journal of Medicinal Chemistry, 2023).

SMILES strings stand for the structures. pEC50, pIC50: −log10 of the molar value. Like-named read-outs stand apart in the source and are kept apart here.

Assay [1] concerns the target SARS-CoV-2 main protease (M^Pro) (Severe acute respiratory syndrome coronavirus 2, UniProt P0DTD1). Briefly: In vitro M^Pro enzymatic inhibition with fluorogenic substrate Sub3. The format is biochemical.
The target of assay [2] is M^Pro-eGFP fusion protein in 293T cells (Severe acute respiratory syndrome coronavirus 2, UniProt P0DTD1). Briefly: cell-based. To be noted: read-out: Cellular EC50. Details: species or system SARS-CoV-2.
Assay [3] relates to SARS-CoV-2 (USA-WA1/2020). Briefly: Plaque reduction neutralization test in Vero E6 cells. The format is cell-based. To be noted: SARS-CoV-2 USA-WA1/2020, Vero E6 cells, 3 days, read-out: Antiviral EC50.
Where [4] appears, read: 20 nM M^Pro, 10 μM Sub3, 30 min preincubation, read-out: Enzymatic IC50.
Setting [5] is: read-out: IC50 (M^Pro enzymatic inhibition).
Setting [6] is: Severe acute respiratory syndrome coronavirus 2, Vero C1008, 72 h.

Turning to `CC1(C)[C@@H]2[C@@H](C(=O)N[C@H](C=O)C[C@@H]3CCNC3=O)N(C(=O)COc3ccc(Cl)cc3Cl)C[C@@H]21` [MI-14, (1R,2S,5S)-3-(2-(2,4-Dichlorophenoxy)acetyl)-6,6-dimethyl-N-((S)-1-oxo-3-((S)-2-oxopyrrolidin-3-yl)propan-2-yl)-3-azabicyclo[3.1.0]hexane-2-carboxamide, reference compound], the negative logarithm of the IC50 (pIC50) is 7.55 in assay [1] (setting [4]) and not below 7.30 in assay [1] (setting [5]). Further, the pEC50 in assay [2] was 6.55.

As for `O=C[C@H](C[C@@H]1CCNC1=O)NC(=O)[C@@H]1[C@H]2CCC[C@H]2CN1C(=O)COc1ccc(Cl)c(Cl)c1` [MI-31, (1S,3aR,6aS)-2-(2-(3,4-Dichlorophenoxy)acetyl)-N-((S)-1-oxo-3-((S)-2-oxopyrrolidin-3-yl)propan-2-yl)octahydrocyclopenta[c]pyrrole-1-carboxamide, reference compound], the pIC50 in assay [1] (setting [4]) is 7.38; in assay [1] (setting [5]) it was not below 7.30. Moreover, the pEC50 in assay [2] was 5.57.

`CC(C)(C)C[C@H](NC(=O)c1cc2ccccc2[nH]1)C(=O)N[C@H](C=O)C[C@@H]1CCNC1=O` [MPI48, N-((S)-4,4-Dimethyl-1-oxo-1-(((S)-1-oxo-3-((S)-2-oxopyrrolidin-3-yl)propan-2-yl)amino)pentan-2-yl)-1H-indole-2-carboxamide]: in assay [1] (setting [4]), the pIC50 is 7.54. Also, the pEC50 in assay [2] was 5.80.

With `COc1cccc2[nH]c(C(=O)N[C@@H](CC(C)(C)C)C(=O)N[C@H](C=O)C[C@@H]3CCNC3=O)cc12` [MPI49, N-((S)-4,4-Dimethyl-1-oxo-1-(((S)-1-oxo-3-((S)-2-oxopyrrolidin-3-yl)propan-2-yl)amino)pentan-2-yl)-4-methoxy-1H-indole-2-carboxamide], the pEC50 in assay [3] (setting [6]) was 5.89; in assay [2], 6.04. The pIC50 in assay [1] (setting [4]) was 7.13.

As for `CC(C)(C)C[C@H](NC(=O)OCc1ccccc1)C(=O)N[C@H](C=O)C[C@@H]1CCNC1=O` [MPI50, Benzyl ((S)-4,4-Dimethyl-1-oxo-1-(((S)-1-oxo-3-((S)-2-oxopyrrolidin-3-yl)propan-2-yl)amino)pentan-2-yl)carbamate], the figures for the negative logarithm of the EC50 (pEC50) in assay [3], in assay [3] (setting [6]) and in assay [2] were 6.12, more than 6.00 and 6.14, respectively. Besides, the pIC50 in assay [1] (setting [4]) was 7.28.

On to `O=C[C@H](C[C@@H]1CCNC1=O)NC(=O)[C@H](CC1CCCCC1)NC(=O)OCc1ccccc1` [MPI51, Benzyl ((S)-3-Cyclohexyl-1-oxo-1-(((S)-1-oxo-3-((S)-2-oxopyrrolidin-3-yl)propan-2-yl)amino)propan-2-yl)carbamate], for which the pEC50 in assay [3] (setting [6]) was 5.17; in assay [2] it was 6.11. Further, the pIC50 in assay [1] (setting [4]) is 7.25.

As to `O=C[C@H](C[C@@H]1CCNC1=O)NC(=O)[C@H](CC1CCCCC1)NC(=O)OCc1cccc(Cl)c1` [MPI52, 3-Chlorobenzyl ((S)-3-Cyclohexyl-1-oxo-1-(((S)-1-oxo-3-((S)-2-oxopyrrolidin-3-yl)propan-2-yl)amino)propan-2-yl)carbamate], the negative logarithm of the EC50 (pEC50) is 5.59 in assay [3] (setting [6]) and 6.23 in assay [2]. Besides, the pIC50 in assay [1] (setting [4]) was 6.96.

As to `CC(=O)Oc1cccc(COC(=O)N[C@@H](CC2CCCCC2)C(=O)N[C@H](C=O)C[C@@H]2CCNC2=O)c1` [MPI53, 3-(((((S)-3-Cyclohexyl-1-oxo-1-(((S)-1-oxo-3-((S)-2-oxopyrrolidin-3-yl)propan-2-yl)amino)propan-2-yl)carbamoyl)oxy)methyl)phenyl Acetate], the pIC50 in assay [1] (setting [4]) is 7.01. Moreover, the pEC50 in assay [2] was 5.46.

Turning to `CC(C)(C)O[C@@H]1C[C@@H](C(=O)N[C@H](C=O)C[C@@H]2CCNC2=O)N(C(=O)OCc2ccccc2)C1` [MPI55], the negative-log IC50 (pIC50) in assay [1] (setting [4]) is 6.25.

For the compound `O=C[C@H](C[C@@H]1CCNC1=O)NC(=O)[C@@H]1C[C@@H](C2CCCCC2)CN1C(=O)OCc1ccccc1` [MPI56, (2S,4S)-Benzyl 4-Cyclohexyl-2-(((S)-1-oxo-3-((S)-2-oxopyrrolidin-3-yl)propan-2-yl)carbamoyl)pyrrolidine-1-carboxylate], the pIC50 in assay [1] (setting [4]) was 6.29.

As to `CC1(C)[C@@H]2[C@@H](C(=O)NC(C=O)CC3CCNC3=O)N(C(=O)OCc3ccccc3)C[C@@H]21` (stereo partly drawn) [MPI57, Benzyl (1R,2S,5S)-6,6-Dimethyl-2-((1-oxo-3-(2-oxopyrrolidin-3-yl)propan-2-yl)carbamoyl)-3-azabicyclo[3.1.0]hexane-3-carboxylate], the negative logarithm of the EC50 (pEC50) in assay [3] (setting [6]) was 5.82.

With `O=C[C@H](C[C@@H]1CCNC1=O)NC(=O)[C@@H]1CC2(CC2)CN1C(=O)OCc1ccccc1` [MPI58, Benzyl (S)-6-(((S)-1-oxo-3-((S)-2-oxopyrrolidin-3-yl)propan-2yl)carbamoyl)-5-azaspiro[2,4]heptane-5-carboxylate], the negative-log EC50 (pEC50) was 5.44 in assay [3] (setting [6]) and 6.18 in assay [2]. Besides, the pIC50 in assay [1] (setting [4]) is 7.60.

For `O=C[C@H](C[C@@H]1CCNC1=O)NC(=O)[C@@H]1CC2(CCC2)CN1C(=O)OCc1ccccc1` [MPI59, Benzyl (S)-7-(((S)-1-Oxo-3-((S)-2-oxopyrrolidin-3-yl)propan-2-yl)carbamoyl)-6-azaspiro[3.4]octane-6-carboxylate], the pEC50 in assay [3] is 6.25; in assay [3] (setting [6]) it was more than 6.00; in assay [2], 6.37. Further, the pIC50 in assay [1] (setting [4]) is 7.52.

Turning to `CC1(C)[C@@H]2[C@@H](C(=O)N[C@H](C=O)C[C@@H]3CCNC3=O)N(C(=O)CNc3ccc(Cl)cc3)C[C@@H]21` [MPI62, (1R,2S,5S)-3-((4-Chlorophenyl)glycyl)-6,6-dimethyl-N-((S)-1-oxo-3-((S)-2-oxopyrrolidin-3-yl)propan-2-yl)-3-azabicyclo[3.1.0]hexane-2-carboxamide], in assay [1] (setting [4]), the negative logarithm of the IC50 (pIC50) is 6.00.

With `O=C[C@H](C[C@@H]1CCNC1=O)NC(=O)[C@@H]1CC2(CC2)CN1C(=O)COc1ccc(Cl)cc1Cl` [MPI63, (S)-5-(2-(2,4-Dichlorophenoxy)acetyl)-N-((S)-1-oxo-3-((S)-2-oxopyrrolidin-3-yl)propan-2-yl)-5-azaspiro[2.4]heptane-6-carboxamide], the pIC50 in assay [1] (setting [4]) is 7.41. Further, in assay [2], the negative-log EC50 (pEC50) was 5.54.

In the case of `CC1(C)[C@@H]2[C@@H](C(=O)N[C@H](C=O)C[C@@H]3CCNC3=O)N(C(=O)COC3CCCCC3)C[C@@H]21` [MPI64, (1R,2S,5S)-3-(2-(Cyclohexyloxy)acetyl)-6,6-dimethyl-N-((S)-1-oxo-3-((S)-2-oxopyrrolidin-3-yl)propan-2-yl)-3-azabicyclo[3.1.0]hexane-2-carboxamide], the pIC50 in assay [1] (setting [4]) was 7.60. In assay [2], the pEC50 was 5.44.

For `CC1(C)[C@@H]2[C@@H](C(=O)N[C@H](C=O)C[C@@H]3CCNC3=O)N(C(=O)CCC3CCCCC3)C[C@@H]21` [MPI65, (1R,2S,5S)-3-(3-Cyclohexylpropanoyl)-6,6-dimethyl-N-((S)-1-oxo-3-((S)-2-oxopyrrolidin-3-yl)propan-2-yl)-3-azabicyclo[3.1.0]hexane-2-carboxamide], the negative-log EC50 (pEC50) in assay [3] is 6.02; in assay [3] (setting [6]) it was more than 6.00; in assay [2], 6.25. Besides, the negative logarithm of the IC50 (pIC50) in assay [1] (setting [4]) is 7.39.

In the case of `N#C[C@H](C[C@@H]1CCNC1=O)NC(=O)C1CC2(CCCC2)CN1C(=O)OCc1ccccc1` (stereo partly drawn) [MPI66-1, Benzyl 3-(((S)-1-Cyano-2-((S)-2-oxopyrrolidin-3-yl)ethyl)carbamoyl)-2-azaspiro[4.4]nonane-2-carboxylate], the pIC50 in assay [1] (setting [4]) is 5.66.

As to `N#C[C@H](C[C@@H]1CCNC1=O)NC(=O)C1CC2(CCCC2)CN1C(=O)OCc1cccc(Cl)c1` (stereo partly drawn) [MPI66-2, 3-Chlorobenzyl 3-(((S)-1-Cyano-2-((S)-2-oxopyrrolidin-3-yl)ethyl)carbamoyl)-2-azaspiro[4.4]nonane-2-carboxylate], the negative-log IC50 (pIC50) in assay [1] (setting [4]) was 5.44.

Consider `COc1cccc2[nH]c(C(=O)N3CC4(CCCC4)CC3C(=O)N[C@H](C=O)C[C@@H]3CCNC3=O)cc12` (stereo partly drawn) [MPI66-3, 2-(4-Methoxy-1H-indole-2-carbonyl)-N-((S)-1-oxo-3-((S)-2-oxopyrrolidin-3-yl)propan-2-yl)-2-azaspiro[4.4]nonane-3-carboxamide], for which, in assay [1] (setting [4]), the negative logarithm of the IC50 (pIC50) is 5.82.

On to `COc1cccc2[nH]c(C(=O)N3CC4(CCCC4)CC3C(=O)N[C@H](C#N)C[C@@H]3CCCNC3=O)cc12` (stereo partly drawn) [MPI66-4, N-((S)-1-Cyano-2-((S)-2-oxopiperidin-3-yl)ethyl)-2-(4-methoxy-1H-indole-2-carbonyl)-2-azaspiro[4.4]nonane-3-carboxamide], for which the pIC50 in assay [1] (setting [4]) is 5.22.

With `N#C[C@H](C[C@@H]1CCNC1=O)NC(=O)C1CC2(CCCCC2)CN1C(=O)OCc1ccccc1` (stereo partly drawn) [MPI67, Benzyl 3-(((S)-1-Cyano-2-((S)-2-oxopyrrolidin-3-yl)ethyl)carbamoyl)-2-azaspiro[4.5]decane-2-carboxylate], the negative-log IC50 (pIC50) in assay [1] (setting [4]) was 5.85.

For the compound `CC(C)(C)OC(=O)N1CC2(CCC2)C[C@H]1C(=O)N[C@H](C=O)C[C@@H]1CCNC1=O` [YR-B-101, tert-Butyl-(S)-7-(((S)-1-oxo-3-((S)-2-oxopyrrolidin-3-yl)propan-2-yl)carbamoyl)-6-azaspiro[3.4]octane-6-carboxylate], the pIC50 in assay [1] (setting [4]) was less than 5.30.
